From patent publication US8148534B2, “Inhibitors of 11-beta-hydroxysteroid dehydrogenase 1” (Eli Lilly and Company, priority 2006, dated 2012)

Assays:
[1] = target: T1, 11β-HSD1 in primary human aortic smooth muscle cells (AoSMC) (Homo sapiens, UniProt P28845); test: Human Aortic Smooth Muscle Cell Assay (cortisone to cortisol conversion); type: cell-based; conditions: hTNFα induced, cortisol by time resolved immunoassay
T1 construct: containing 12 ng/mL hTNFα to induce expression of 11β-HSD1; endogenous in cells; host or cells: primary human aortic smooth muscle cells (AoSMC), induced with hTNFα
T1 sequence (P28845 whole entry): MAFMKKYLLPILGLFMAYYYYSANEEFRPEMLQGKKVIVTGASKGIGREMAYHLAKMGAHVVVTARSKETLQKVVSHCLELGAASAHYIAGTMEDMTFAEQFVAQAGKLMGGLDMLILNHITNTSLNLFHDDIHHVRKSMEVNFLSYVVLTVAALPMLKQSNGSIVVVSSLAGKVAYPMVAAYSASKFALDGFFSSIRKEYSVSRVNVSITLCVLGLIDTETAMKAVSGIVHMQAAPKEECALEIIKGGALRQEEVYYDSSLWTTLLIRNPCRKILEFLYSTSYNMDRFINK
Method: Human Aortic Smooth Muscle Cell Assay
Primary human aortic smooth muscle cells (AoSMC) are cultured in 5% FBS growth medium to a passage number of 6, then pelleted by centrifugation and resuspended at a density of 9×10^4 cells/mL in 0.5% FBS assay medium containing 12 ng/mL hTNFα to induce expression of 11β-HSD1. Cells are seeded into 96-well tissue culture assay plates at 100 μL/well (9×10^3 cells/well) and incubated for 48 hours at 37° C., 5% CO2. Following induction, cells are incubated for 4 hours at 37° C., 5% CO2 in assay medium containing test compounds then treated with 10 μL/well of 10 μM cortisone solubilized in assay medium, and incubated for 16 hours at 37° C., 5% CO2. Medium from each well is transferred to a plate for subsequent analysis of cortisol using a competitive fluorescence resonance time resolved immunoassay. […] Higher levels of free cortisol result in diminishing energy transfer from the Europium-IgG to the APC-cortisol complex resulting in less APC fluorescence. Fluorescent intensities for Europium and APC are measured using a LJL Analyst AD. Europium and APC […] is measured using 360 nm excitation and 615 nm and 650 nm emission filters respectively. […] Fluorescent intensities measured for APC are modified by dividing by the Eu fluorescence (APC/Eu). […]

[2] = system: cortisone to cortisol conversion in male C57BL/6 mice; test: Acute In Vivo Cortisone Conversion Assay; conditions: oral dose of 10 mg/kg, cortisone challenge 30 mg/kg s.c. after 16 hours, serum cortisol
Method: Acute In Vivo Cortisone Conversion Assay
In general, compounds are dosed orally into mice, the mice are challenged with a subcutaneous injection of cortisone at a set timepoint after compound injection, and the blood of each animal is collected some time later. Separated serum is then isolated and analyzed for levels of cortisone and cortisol by LC-MS/MS, followed by calculation of mean cortisol and percent inhibition of each dosing group. Specifically, male C57BL/6 mice are obtained from Harlan Sprague Dawley at average weight of 25 grams. Exact weights are taken upon arrival and the mice randomized into groups of similar weights. Compounds are prepared in 1% w-w HEC, 0.25% w-w polysorbate 80, 0.05% w-w Dow Corning antifoam #1510-US at various doses based on assumed average weight of 25 grams. Compounds are dosed orally, 200 μl per animal, followed by a subcutaneous dose, 200 μl per animal, of 30 mg/kg cortisone at 1 to 24 hours post compound dose. At 10 minutes post cortisone challenge, each animal is euthanized for 1 minute in a CO2 chamber, followed by blood collection via cardiac puncture into serum separator tubes. Once fully clotted, tubes are spun at 2500×g, 4° C. for 15 minutes, the serum transferred to wells of 96-well plates (Corning Inc, Costar #4410, cluster tubes, 1.2 ml, polypropylene), and the plates are frozen at −20° C. until analysis by LC-MS/MS. […]

[3] = target: recombinant human 11β-HSD type 1 enzyme (Homo sapiens, UniProt P28845); test: 11-β-HSD Type 1 Enzyme Assay (NADPH fluorescence); type: biochemical; conditions: three hour incubation at room temperature, read-out: Human 11-βHSD1 IC50
Sequence of recombinant human 11β-HSD type 1 enzyme (P28845 whole entry): as above
Method: 11-β-HSD Type 1 Enzyme Assay
Human 11-β-HSD type 1 activity is measured by assaying NADPH production by fluorescence assay. Solid compounds are dissolved in DMSO to a concentration of 10 mM. Twenty microliters of each are then transferred to a column of a 96-well polypropylene Nunc plate where they are further diluted 50-fold followed by subsequent two-fold titration, ten times across the plate with additional DMSO using a Tecan Genesis 200 automated system. Plates are then transferred to a Tecan Freedom 200 system with an attached Tecan Temo 96-well head and an Ultra 384 plate reader. Reagents are supplied in 96-well polypropylene Nunc plates and are dispensed individually into black 96-well Molecular Devices High Efficiency assay plates (40 μL/well capacity) in the following fashion: 9 μL/well of substrate (2.22 mM NADP, 55.5 μM Cortisol, 10 mM Tris, 0.25% Prionex, 0.1% Triton X100), 3 μL/well of water to compound wells or 3 μL to control and standard wells, 6 μL/well recombinant human 11β-HSD type 1 enzyme, 2 μL/well of compound dilutions. […] Plates are then shaken once more for 15 seconds then placed into an Ultra 384 microplate reader (355EX/460EM) for detection of NADPH fluorescence.

IC50 [1] | IC50 [3] | Compound | % Inhibition after 16 hours (dose of 10 (mg/kg)) [2]
16.8 nM | – | O=C(c1ccc(-c2cc(Cl)c(C[C@@H]3CCN(N4CCCCC4)C3=O)c(Cl)c2)cc1)N1CCC(C(F)(F)F)CC1 [Example 1, (R)-3-[3,5-Dichloro-4′-(4-trifluoromethyl-piperidine-1-carbonyl)-biphenyl-4-ylmethyl]-1-piperidin-1-yl-pyrrolidin-2-one] | 78%
10.4 nM | 357 nM | O=C(c1ccc(-c2cc(Cl)c(C[C@@H]3CCN(N4CCCCC4)C3=O)c(Cl)c2)cc1)N1CCC(O)CC1 [Example 2, (R)-3-[3,5-Dichloro-4′-(4-hydroxy-piperidine-1-carbonyl)-biphenyl-4-ylmethyl]-1-piperidin-1-yl-pyrrolidin-2-one] | –
